Source: the supplement of paper PMC10307832

Tests used:
Test in all cases: relative viability (nuclei count vs DMSO), 5 days (fraction); higher = more cells survive
MK-2206 + Tozasertib = compound: NC1(c2ccc(-c3nc4ccn5c(=O)[nH]nc5c4cc3-c3ccccc3)cc2)CCC1 [MK-2206] + Cc1cc(Nc2cc(N3CCN(C)CC3)nc(Sc3ccc(NC(=O)C4CC4)cc3)n2)n[nH]1 [Tozasertib] (partner 0.1 µM)
Outline: (§1)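 Lung cancer cell lines in 1536-well plates were dosed by pin tool the day after seeding, either with one drug alone or with a fixed anchor-drug dose plus five library-drug doses (not always all listed) in √10 steps. After 5 days, cells were fixed and their nuclei stained in one step (final 0.05% Triton X-100, 1% formaldehyde, 1 ug/ml Hoechst), then counted on 4× images. Relative viability is the nuclei count in treated wells divided by that in vehicle wells. Values are medians of duplicate plates.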

Pictilisib + AZD7762 = compound: CS(=O)(=O)N1CCN(Cc2cc3nc(-c4cccc5[nH]ncc45)nc(N4CCOCC4)c3s2)CC1 [Pictilisib] + NC(=O)Nc1cc(-c2cccc(F)c2)sc1C(=O)N[C@H]1CCCNC1 [AZD7762] (partner 0.2 µM)
Outline: as §1

MK-2206 + Lapatinib = compound: NC1(c2ccc(-c3nc4ccn5c(=O)[nH]nc5c4cc3-c3ccccc3)cc2)CCC1 [MK-2206] + CS(=O)(=O)CCNCc1ccc(-c2ccc3ncnc(Nc4ccc(OCc5cccc(F)c5)c(Cl)c4)c3c2)o1 [Lapatinib] (partner 2 µM)
Outline: as §1

Pictilisib + Phenformin = compound: CS(=O)(=O)N1CCN(Cc2cc3nc(-c4cccc5[nH]ncc45)nc(N4CCOCC4)c3s2)CC1 [Pictilisib] + N=C(N)NC(=N)NCCc1ccccc1 [Phenformin] (partner 250 µM)
Outline: as §1

MK-2206 = compound: NC1(c2ccc(-c3nc4ccn5c(=O)[nH]nc5c4cc3-c3ccccc3)cc2)CCC1 [MK-2206]
Outline: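 Five library-drug doses, separated by factors of √10, were pinned into 1536-well plates holding lung cancer cell lines after an overnight stay at 37 °C. Cells were fixed, permeabilised and Hoechst-stained in one step after 5 days without medium change, then imaged at 4×. Viability compares treated-well with vehicle-well nuclei, counted in MetaXpress, as a median across plates. Passing plates had control CV below 25% and at least one doubling.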

Cell Line	relative viability (MK-2206 + Tozasertib; first compound 0.01 µM)	relative viability (MK-2206 + Tozasertib; first compound 0.03162 µM)	relative viability (MK-2206 + Tozasertib; first compound 0.3162 µM)	relative viability (MK-2206 + Tozasertib; first compound 1 µM)	relative viability (Pictilisib + AZD7762; first compound 0.02 µM)	relative viability (Pictilisib + AZD7762; first compound 0.06325 µM)	relative viability (Pictilisib + AZD7762; first compound 0.6325 µM)	relative viability (Pictilisib + AZD7762; first compound 2 µM)	relative viability (MK-2206 + Lapatinib; first compound 0.01 µM)	relative viability (MK-2206 + Lapatinib; first compound 0.03162 µM)	relative viability (MK-2206 + Lapatinib; first compound 0.3162 µM)	relative viability (MK-2206 + Lapatinib; first compound 1 µM)	relative viability (Pictilisib + Phenformin; first compound 0.02 µM)	relative viability (Pictilisib + Phenformin; first compound 0.06325 µM)	relative viability (Pictilisib + Phenformin; first compound 0.6325 µM)	relative viability (Pictilisib + Phenformin; first compound 2 µM)	relative viability (MK-2206; 0.01 µM)	relative viability (MK-2206; 0.03162 µM)	relative viability (MK-2206; 0.3162 µM)	relative viability (MK-2206; 1 µM)
201T	0.962	0.931	0.98	0.948	0.637	0.571	0.41	0.448	0.988	1.12	1.02	1.12	0.476	0.443	0.409	0.3	0.987	1.03	0.982	0.995
A549	–	–	–	–	–	–	–	–	0.874	0.988	0.932	0.81	0.235	0.177	0.155	0.0936	1.02	1.07	0.921	0.877
A-427	0.218	0.197	0.191	0.207	0.796	0.738	0.556	0.403	1.11	1.03	1.09	1.12	0.345	0.357	0.27	0.212	1.04	1.06	0.981	0.974
ABC-1	0.145	0.148	0.167	0.163	1	0.741	0.657	0.609	1.32	1.29	1.08	1.13	0.254	0.214	0.195	0.209	0.947	0.949	0.884	0.879
BEN	0.554	0.621	0.416	0.443	0.809	0.808	0.745	0.447	0.679	0.658	0.697	0.657	0.315	0.286	0.286	0.248	0.97	1.08	1.07	0.836
CAL-12T	0.289	0.304	0.317	0.327	0.609	0.845	0.724	0.626	0.682	0.698	0.667	0.454	0.612	0.578	0.467	0.239	0.939	1.06	1.07	0.953
COR-L23	0.186	0.243	0.234	0.17	–	–	–	–	0.949	1.03	0.92	1.1	0.428	0.471	0.522	0.424	1.01	1.05	1.03	0.99
COR-L 105	0.419	0.309	0.403	0.345	–	–	–	–	0.382	0.42	0.317	0.335	0.584	0.508	0.362	0.272	0.854	0.958	0.934	0.801
Calu-6	–	–	–	–	–	–	–	–	1.05	1.13	1.09	0.974	–	–	–	–	1.02	1.06	1.01	0.962
ChaGo-K-1	0.236	0.268	0.2	0.228	0.858	0.913	0.864	0.784	–	–	–	–	0.438	0.529	0.42	0.33	1.02	1.14	0.968	0.866
EBC-1	–	–	–	–	–	–	–	–	0.217	0.2	0.174	0.224	–	–	–	–	0.986	1.01	0.819	0.29
EKVX	0.405	0.395	0.344	0.329	0.732	0.703	0.41	0.315	0.2	0.207	0.17	0.179	0.228	0.256	0.211	0.178	1.01	0.952	0.936	0.758
EMC-BAC-2	0.333	0.298	0.271	0.261	1.16	1.12	0.798	0.631	0.859	0.959	0.901	0.805	0.604	0.515	0.432	0.335	0.95	0.959	0.926	0.871
IA-LM	–	–	–	–	–	–	–	–	–	0.765	0.695	0.438	–	–	–	–	0.904	0.992	1.02	0.691
LCLC-103H	0.495	0.609	0.516	0.477	0.803	0.728	0.588	0.456	–	–	–	–	0.378	0.312	0.294	0.214	0.923	0.984	0.982	1.11
NCI-H441	0.68	0.573	0.498	0.462	1.18	1.11	1.11	0.7	–	–	–	–	0.822	0.789	0.601	0.337	1.09	1.05	0.845	0.921
